This note sets out measurements from patent publication US20140045807A2, “THE USE OF 3-METHOXY-PREGNENOLONE FOR THE PREPARATION OF A DRUG FOR TREATING A TRAUMATIC BRAIN INJURY” (priority 2004, published 2014).

For experiment [1], the target named is T1, human progesterone receptor(PR) (Homo sapiens, UniProt P06401).
T1 construct: expressed in transfected cells; host or cells: HEK293T
T1 sequence (P06401 1-933): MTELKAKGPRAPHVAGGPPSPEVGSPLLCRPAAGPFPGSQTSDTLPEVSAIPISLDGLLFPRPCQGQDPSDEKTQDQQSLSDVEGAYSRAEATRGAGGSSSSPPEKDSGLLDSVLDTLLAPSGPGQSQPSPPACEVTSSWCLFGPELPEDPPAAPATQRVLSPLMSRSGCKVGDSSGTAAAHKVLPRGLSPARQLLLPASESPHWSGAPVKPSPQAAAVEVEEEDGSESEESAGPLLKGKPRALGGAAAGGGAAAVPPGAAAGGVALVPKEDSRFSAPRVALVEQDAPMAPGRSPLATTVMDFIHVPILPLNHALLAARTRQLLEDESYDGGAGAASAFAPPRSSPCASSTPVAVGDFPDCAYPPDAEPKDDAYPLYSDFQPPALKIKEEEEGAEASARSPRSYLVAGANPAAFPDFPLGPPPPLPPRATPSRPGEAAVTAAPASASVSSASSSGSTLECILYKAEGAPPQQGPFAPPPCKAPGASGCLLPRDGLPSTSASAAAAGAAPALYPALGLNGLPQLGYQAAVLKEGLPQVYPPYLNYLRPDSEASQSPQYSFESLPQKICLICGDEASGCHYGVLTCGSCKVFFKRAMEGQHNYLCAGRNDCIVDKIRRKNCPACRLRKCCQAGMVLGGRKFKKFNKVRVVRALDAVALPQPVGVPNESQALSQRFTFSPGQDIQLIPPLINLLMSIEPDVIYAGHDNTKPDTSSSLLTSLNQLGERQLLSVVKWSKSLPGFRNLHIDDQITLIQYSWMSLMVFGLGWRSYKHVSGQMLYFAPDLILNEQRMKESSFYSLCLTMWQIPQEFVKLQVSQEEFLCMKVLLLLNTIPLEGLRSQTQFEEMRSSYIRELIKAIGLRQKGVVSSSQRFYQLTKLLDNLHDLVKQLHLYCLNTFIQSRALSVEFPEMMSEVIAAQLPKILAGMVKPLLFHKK
The experiment can be described thus: Test of progesterone receptor agonist activity (luciferase transactivation, HEK293T). Format: cell-based. As to conditions: increasing amounts, 24 hours. As for the experimental part:
The main experimental setting used is the following: HEK293T cells were transiently transfected, using calcium phosphate precipitation technology, with expression vectors pSG5hPR (which permits expression of human progesterone receptor(PR)), pFC31-luc (contains the luciferase gene under the control of the MMTV promoter, which is in turn activated by binding of a progestin to progesterone receptor) and pcbetagal (which permits expression of betagalactosidase), and cultured during 24 hours with increasing amounts of various compositions: • 1. […] Test of progesterone receptor […] activity: transfected cells were cultured with progesterone (1 nM) and increasing amounts of RU486 (a well-known progesterone receptor antagonist) or 3-methoxy-pregnenolone. • With this setting, a compound with progesterone receptor antagonist activity competes with progesterone for the occupation of progesterone receptor and results in a progressive loss of transactivation activity when the amount of this compound is increased compared to progesterone.

For another experiment, the system named is GFAP. Briefly: GFAP immunostaining after Lateral Fluid Percussion (LFP). It is filed as in vivo, rat. As to conditions: first injection 2 hours post-trauma, day 35, no statistical analysis. On the procedure: FIG. 24: Quantification of GFAP immunostaining in LFP-injured animals. (A) GFAP immunostaining in injured cortex of LFP-injured animals injected with vehicle (sesame oil), or 3-methoxy-PREG (MAP4343) at 10 mg/kg or 20 mg/kg, with first injection at 2 hours post-trauma. (B) GFAP immunostaining in injured and uninjured thalamus of LFP-injured animals injected with vehicle (sesame oil), or 3-methoxy-PREG (MAP4343) at 10 mg/kg or 20 mg/kg, with first injection at 2 hours post-trauma. No statistical analysis has been performed.
After anesthesia induction, the animal was placed on a stereotaxic frame. […]
Trauma was induced by a fluid percussion device (Custom Design and Manufacturing, United Kingdom) (Besson et al., 2003): it is a cylindrical tank (60 cm long), with a piston on one side, over which a hammer exercises a constraint, and a male Luer-Lock on the other side. […] The amplitude of each shock wave was measured via a pressure transducer connected to the terminal portion of the device. The pressure signal was recorded on an oscilloscope. […]
After mounting on Superfrost slides, frozen sections were dried for 90 minutes at room temperature and stored at −80° C. until use. […] Immunostaining was quantitatively assessed by optical density measurements directly from the section image (Image J). […]

Experiment [2] deals with microtubule-associated MAP2 in PC12 cells. Briefly: Immunolabeling of microtubule-associated MAP2 in PC12 cells. It is filed as cell-based, rat. As to conditions: 20 μM, NGF 10 ng/ml (FIG. 4). The text has this:
They were fixed and exposed to anti-MAP2 antibodies that reveal microtubule-associated MAP2 exclusively.
To test the effect of selected molecules on neuritic growth, we first used the PC12 line, which has long been employed in neurobiological research. In the presence of NGF (nerve growth factor), the cells of this line, which arise from a rat pheochromocytoma, form neuritic extensions containing MAP-associated microtubules. The growth of these elongations is stimulated by the addition of PREG. […] This neurite growth accompanies the stimulation by 43-B of the association of MAP2 to the microtubules (FIG. 4).

SMILES strings stand for the structures.

Consider `CO[C@H]1CC[C@@]2(C)C(=CC[C@H]3[C@@H]4CC[C@H](C(C)=O)[C@@]4(C)CC[C@@H]32)C1` [3-methoxy-PREG, 3β-methoxy-pregna-5-ene-20-one], for which the “progesterone receptor agonist (transactivation) activity” value in experiment [1] is listed as “does not have progesterone receptor agonist activity”. In the experiment on GFAP (10 mg/kg or 20 mg/kg), the “astrocytes GFAP immunoreactivity in the injured cortex” value is reported as “highly decreased”. The “astrocytes immunoreactivity (GFAP) in the injured thalamus” value with GFAP (especially Dose2 (20 mg/kg)) is given as “strongly decreases astrocytes immunoreactivity”. In addition, the “association of MAP2 to the microtubules” value in experiment [2] is “stimulation”.
